# Measured values reported in EP1110454A2, “5-Carboxanilido-haloalkylthiazoles as antimicrobial and marine antifouling agents” (ROHM AND HAAS COMPANY, priority 1999, dated 2001).
# Tests used:
# Format in all cases: cell-based
# [1] = tested on: Aspergillus niger, Rhodotorula rubra, Escherichia coli and Pseudomonas aeruginosa; assay: MIC tests, overall spectrum of antimicrobial activity; conditions: verbal summary of the MIC results of Table 1
# Protocol: (§1) The spectrum of antimicrobial activity of the antimicrobial agents useful in the present invention were determined in Minimum Inhibitory Concentration (MIC) tests. MICs were determined by two fold serial dilutions of a compound in Minimal Salts Media (M9G), Trypticase Soy Broth (TSB) or Tryticase Soy Broth and anionic surfactant (TSBA). The compounds were tested against Aspergillus niger, Rhodotorula rubra, Escherichia coli and Pseudomonas aeruginosa. Results of the MIC tests are shown below.
# Escherichia coli = assay: Minimum Inhibitory Concentration (MIC) test, two fold serial dilutions; set-up: unit not given here; conditions: Minimal Salts Media (M9G)
# Protocol: as §1
# Rhodotorula rubra = assay: as above; set-up: R. Rubra M9G: unit not given here; conditions: for R. Rubra M9G: Minimal Salts Media (M9G)
# Protocol: as §1
# Aspergillus niger = assay: as above; conditions: Trypticase Soy Broth (TSB)
# Protocol: as §1
Structure (SMILES),microbicidal activity [1],E.Coli M9G (Escherichia coli),R. Rubra M9G (Rhodotorula rubra),R. Rubra TSB (Rhodotorula rubra; Trypticase Soy Broth (TSB)),A. niger TSB (Aspergillus niger)
O=C(Nc1ccc(F)c(F)c1)c1sc(C(Cl)(Cl)Cl)nc1C(F)(F)F [Compound 43],surprisingly effective at controlling microorganisms,>300,30,30,>30
O=C(Nc1c(Br)cc(OC(F)(F)F)cc1Br)c1sc(C(F)(F)F)nc1C(F)(F)F [Compound 29],,>300,300,,
O=C(Nc1c(Br)cc(Br)cc1Br)c1sc(C(F)(F)F)nc1C(F)(F)F [Compound 26],,>300,300,,
Cc1nc(C(F)(F)F)c(C(=O)Nc2c(Cl)cc(OC(F)(F)F)cc2Cl)s1 [Compound 33],,300,300,,
Cc1nc(C(F)F)c(C(=O)Nc2c(Br)cc(Br)cc2Br)s1 [Compound 34],,300,300,,
Cc1nc(C(F)F)c(C(=O)Nc2c(Br)cc(OC(F)(F)F)cc2Br)s1 [Compound 35],,300,300,,
